Source: ChEMBL document CHEMBL1123813, “Chemistry and inhibitory activity of long chain fatty acid oxidation of emeriamine and its analogues” (J Med Chem, 1987)

Assays:
Rattus norvegicus [1] = species: Rattus norvegicus; assay: Inhibition of carnitine-dependent oxidation of [1-14C]palmitate to 14CO2 in rat liver mitochondria was measured in vitro at 2*10e-1 mM concentration; assay type: functional
Rattus norvegicus [2] = species: Rattus norvegicus; assay: Inhibition of carnitine-dependent oxidation of [1-14C]palmitate to 14CO2 in rat liver mitochondria was measured in vitro at 2 mM concentration
Rattus norvegicus [3] = species: Rattus norvegicus; assay: Inhibition of carnitine-dependent oxidation of [1-14C]palmitate to 14CO2 in rat liver mitochondria was measured in vitro at 2*10e-3 mM concentration; assay type: functional
Rattus norvegicus [4] = species: Rattus norvegicus; assay: Inhibition of carnitine-dependent oxidation of [1-14C]palmitate to 14CO2 in rat liver mitochondria was measured in vitro at 2*10e-2 mM concentration; assay type: functional

Row | SMILES | inhibition (Rattus norvegicus [1]) | inhibition (Rattus norvegicus [2]) | inhibition (Rattus norvegicus [3]) | inhibition (Rattus norvegicus [4])
1 | C[N+](C)(C)C[C@@H](CC(=O)[O-])NC=O | 53% | 84% |  | 
2 | COC(=O)CC(N)C[N+](C)(C)C (stereo not drawn) |  |  | 26% | 73%
3 | COC(=O)NC(CC(=O)[O-])C[N+](C)(C)C (stereo not drawn) | 0% | 0% |  | 
4 | CCOC(=O)CC(N)C[N+](C)(C)C (stereo not drawn) |  |  | 37% | 85%
5 | CCCCCCCCCCCCCC(=O)NC(CC(=O)[O-])C[N+](C)(C)C (stereo not drawn) |  |  | 100% | 100%
6 | C[N+](C)(C)CC(CC(=O)[O-])NC(N)=O (stereo not drawn) | 84% | 72% |  | 
7 | C[N+](C)(C)CC(CC(=O)[O-])NC(=O)OCc1ccccc1 (stereo not drawn) | 85% | 98% |  | 
8 | CC(=O)NC(CC(=O)[O-])C[N+](C)(C)C (stereo not drawn) | 6% | 38% |  | 
9 | CCC(=O)NC(CC(=O)[O-])C[N+](C)(C)C (stereo not drawn) |  | 44% |  | 
10 | CCCCCCCCCCCCCCCC(=O)NC(CC(=O)[O-])C[N+](C)(C)C (stereo not drawn) |  |  | 100% | 100%
11 | Cc1ccc(S(=O)(=O)NC(CC(=O)[O-])C[N+](C)(C)C)cc1 (stereo not drawn) | 84% | 100% |  | 
12 | C[N+](C)(C)CC(N)CC(N)=O (stereo not drawn) |  |  | 10% | 27%
13 | CNC(CC(=O)[O-])C[N+](C)(C)C (stereo not drawn) | 89% | 100% |  | 
14 | C[N+](C)(C)C[C@H](N)CC(=O)[O-] |  |  | 59% | 90%
15 | CCCC(=O)NC(CC(=O)[O-])C[N+](C)(C)C (stereo not drawn) |  | 50% |  | 
